Laboratory results published in US10537563B2, “Methods for treating ocular disease using inhibitors of CSF-1R” (NOVARTIS AG, priority 2016, dated 2020).

Tests used:
[1] = tested on: subretinal Iba1+ cells; test: Cellular infiltration assay in laser CNV model, subretinal Iba1+ microglia; type: in vivo, mouse
Procedure: (§1) In one experiment, Compound (Ia) or vehicle was dosed orally at 30, 100 or 200 mg/kg starting about 1 hour before laser and continued administration daily until the day before tissue harvest.
(§2) In a second experiment, mice were dosed daily with 50 mg/kg of Compound (Ia) and with i.p. injections of a mouse anti-VEGF antibody at a dose of 0.3 mg/kg at day 0, 2 and 4. Other groups of mice in the experiment were dosed with monotherapy of Compound (Ia) or the anti-VEGF antibody at higher doses.
(§3) Cellular infiltration into the retina, the PEC or the CNV lesion was assessed after laser application. Eyes were fixed with 4% Paraformaldehyde for ˜90 minutes. After fixation, whole eyes were dissected into the retina and PEC. […]
(§4) Iba1+ cells in the PEC peripheral to the CNV lesion were counted using a different semi-automatic MatLab code. […] The operator is then presented with masked, randomized images and allowed the functionality to remove miscellaneous fluorescence (false positive) and add missed cells (false negative) to the analysis. Confluent microglia cells and CNV lesions were excluded from the quantification analysis. In a study, each assessed condition consisted of 10 eyes from 5 mice and would typically yield 10 data points. […] F4/80+ cells in the retina were counted using a similar semi-automatic MatLab code and followed the same procedure as above. […]

[2] = tested on: retinal F4/80+ cells; test: Cellular infiltration assay in laser CNV model, retinal F4/80+ macrophages; type: in vivo, mouse
Procedure: as §1, §2, §3, §4

[3] = tested on: VEGF; test: Interaction with VEGF versus CSF-1 receptor signaling; conditions: at concentrations where the signaling of the CSF-1 receptor is strongly or completely inhibited
[4] = tested on: choroidal neovascularization; test: Laser-induced choroidal neovascularization model, CNV area; type: in vivo, mouse; conditions: oral daily, 30, 100 or 200 mg/kg, dose dependent; tissues harvested day 7
Procedure: To investigate the effects of CSF-1R inhibition on ocular angiogenesis and inflammation, Compound (Ia) was assessed in a rodent model of laser-induced choroidal neovascularization (methods below) for effect on blood vessel growth and cellular infiltration after a laser injury. Compound (Ia) was assessed either as a monotherapy or in combination with a suboptimal dose of a VEGF antibody.
as §1, §2
Mouse pupils were dilated with one drop (˜40 μL) of 1% cyclopentolate. Just before anesthesia, pupil dilation was maximized with an additional drop of phenylephrine (usually 10% but occasionally 2.5% depending upon availability). […]
Analysis of neovascularization was completed on tissues harvested 7 days after laser photocoagulation. […] CNV area was quantified using a semi-automated analysis program (Axiovision software version 4.5, Carl Zeiss Microscopy) that outlined the fluorescent blood vessels. […]

[5] = tested on: macrophages in areas around the ciliary body; test: Macrophages around the ciliary body in CX3CR1-GFP reporter mice; type: in vivo, mouse; conditions: salt of Compound (Ia), oral 200 mg/kg daily for 14 days
Procedure: To investigate the effects of CSF-1R inhibition on inflammation, Compound (Ia) was assessed in CX3CR1-GFP reporter mice (which report on macrophage and microglia). The presence of macrophages in areas around the ciliary body in the front of the eye (but not in the cornea) was examined and confirmed by anti-GFP immunohistochemistry staining (see panels (a) and (b) in FIG. 4). The arrow-indicated dots are the positive stained macrophage cells).
In this experiment, mice was treated with a salt of Compound (Ia) orally at 200 mg/kg daily for 14 days and immediately examined for the presence of macrophages (see panels (c) and (d) in FIG. 4).

interaction with VEGF [3]	SMILES	reduction in subretinal Iba1+ cells (microglia) ([1]; 200 mg/kg oral)	microglia in the subretinal space ([1]; 50 and 200 mg/kg)	reduction in retinal F4/80+ cells (macrophages) ([2]; 200 mg/kg oral)	macrophages in the retina ([2]; 50 and 200 mg/kg)	reduction in CNV area compared to vehicle [4]	macrophages in areas around the ciliary body, day 14 ([5]; day 14)	macrophages in areas around the ciliary body, day 21 ([5]; day 21)	macrophages in areas around the ciliary body, day 44 ([5]; day 44)
not to interact strongly	CNC(=O)c1cc(Oc2ccc3nc(N[C@@H]4CCCC[C@H]4O)sc3c2)ccn1 [Compound (Ia), 4-((2-(((1R,2R)-2-hydroxycyclohexyl)amino)benzo[d]thiazol-6-yl)oxy)-N-methylpicolinamide]	66-99%	significantly reduced	83-84%	significantly reduced	75%	depleted	started to return	almost back to steady state
not to interact strongly	CNC(=O)c1cc(Oc2ccc3nc(N[C@H]4CCCC[C@@H]4O)sc3c2)ccn1 [Compound (Ib), 4-((2-(((1S,2S)-2-hydroxycyclohexyl)amino)benzo[d]thiazol-6-yl)oxy)-N-methylpicolinamide]								
